From PubChem BioAssay (NCI)
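Dose response: 5 concentrations. Exposure: 48 h. Format: 96-well plates. Endpoint: linear interpolation; highest concentration if not reached. TGI denotes the concentration required for complete inhibition of growth.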

How the values were obtained:
Experiment in all cases: NCI-60 cell line screen, 48 h
[1] = tested on: SK-OV-3 ovarian
[2] = tested on: NCI/ADR-RES ovarian
[3] = tested on: DU-145 prostate
[4] = tested on: NCI-H522 lung
[5] = tested on: IGROV1 ovarian
[6] = tested on: OVCAR-3 ovarian
[7] = tested on: SN12C renal
[8] = tested on: HT29 colon
[9] = tested on: MDA-MB-435
[10] = tested on: SR leukemia

Row | Structure (SMILES) | TGI [1] [µM] | TGI [2] [µM] | TGI [3] [µM] | TGI [4] [µM] | TGI [5] [µM] | TGI [6] [µM] | TGI [7] [µM] | TGI [8] [µM] | TGI [9] [µM] | TGI [10] [µM]
1 | CC(C)NC(=O)OCCN=C1c2ccccc2C(Br)C(Br)c2ccccc21 (stereo not drawn) | > 62.9 | 41.7 | 30 | 3.52 | 7.14 | 35.6 | 43.4 | 25 | 27.2 | –
2 | N#CC(c1cc(Cl)ncn1)c1nc2cc(C(F)(F)F)ccc2s1 (stereo not drawn) | 53.7 | 9.5 | > 100 | 3.61 | 20.3 | 17.4 | > 100 | 12.3 | > 100 | –
3 | C[C@]12CC[C@H]3[C@@H](CCC4=C/C(=N/OCCN5CCCCC5)CC[C@@]43C)[C@@H]1CC[C@@H]2O | 30.3 | 54.4 | 63.5 | 36.1 | > 100 | 32 | 38.2 | 15.2 | 20.2 | –
4 | O=C(c1ccccc1)C1C(c2ccccc2[N+](=O)[O-])N1C1CCCCC1 (stereo not drawn) | > 60.9 | > 85.2 | 22.6 | 5.9 | 17.4 | 7.82 | 15.6 | 16.4 | 10.8 | –
5 | COc1cc(CNc2nc3c(NC(C)=O)cc(C(F)(F)F)cc3nc2-c2ccccc2)cc(OC)c1OC | > 100 | – | – | > 100 | > 100 | > 100 | > 100 | – | – | > 100
6 | Nc1ncnc2c1ncn2C1C(O)C=C(CO)C1O (stereo not drawn) | > 625 | > 625 | – | – | > 625 | > 625 | > 625 | > 625 | – | –
7 | COc1cc(/C=C2\C(=O)N(c3ccc(Cl)cc3)C(c3ccccc3)S2(=O)=O)cc(OC)c1OC (stereo not drawn) | > 100 | > 100 | > 100 | 60.5 | – | > 100 | > 100 | > 100 | 23.1 | –
8 | CC1OC23CCCCC2C(C#N)(C#N)C1(C#N)C(=N)O3 (stereo not drawn) | > 100 | > 100 | 66.5 | – | 41.9 | 36.5 | 30.1 | > 100 | 50.9 | –
9 | COc1cc(C2C3=C(NC(=O)C2C#N)c2ccc4ccccc4c2OCC3)cc(OC)c1OC (stereo not drawn) | 62.4 | > 100 | > 100 | > 100 | 36.9 | > 100 | 38.9 | > 100 | > 100 | –
10 | CCOC(=O)CSc1nc(-c2ccc(Cl)cc2)c(C#N)c(=O)[nH]1 | > 100 | > 100 | > 100 | > 100 | > 100 | > 100 | > 100 | > 100 | > 100 | –
11 | COc1ccc(/C=C2\N=C3N(Cc4ccccc4)C=C(N)N3C2=O)cc1 | > 100 | > 100 | > 100 | > 100 | > 100 | > 100 | > 100 | > 100 | > 100 | –
12 | Cc1cc(C)c(C2=NO[C@@H]3[C@H]2C(=O)C=C2N(Cc4ccccc4)CCO[C@@]23O)c(C)c1 | > 100 | > 100 | – | > 100 | > 100 | > 100 | > 100 | > 100 | – | –
13 | CN(C)c1ccc(/C=C2\N=C(c3ccccc3)N(c3nc4ccc(Sc5ccccc5)cc4[nH]3)C2=O)cc1 | 49.2 | 85.3 | > 100 | > 100 | > 100 | 59.3 | > 100 | > 100 | 38.6 | –
14 | COc1cc2c(cc1OCCN1CCN(CCOc3cc4c(cc3OC)C(=O)N3CCC[C@H]3C=N4)CC1)N=C[C@@H]1CCCN1C2=O | > 100 | > 100 | > 100 | > 82.1 | > 78.3 | 66.8 | > 100 | > 100 | 64.2 | –
15 | CCOC(=O)CCC(C(=O)OCC)n1nnc2cc(Nc3c(C)[n+]([O-])c4cc(Cl)ccc4[n+]3[O-])ccc21 (stereo not drawn) | > 100 | > 100 | > 100 | > 100 | > 100 | > 100 | > 100 | > 100 | > 100 | –
16 | CN(C)CCCNC(=O)N/N=C/c1ccccn1 | > 10 | > 10 | > 10 | > 10 | > 10 | – | > 10 | > 10 | – | > 10
17 | N#Cc1nc(-c2ccsc2)oc1N | > 100 | – | > 100 | – | > 100 | – | > 100 | > 100 | > 100 | > 100
18 | O=C(O)C1C2OC(C(Br)C2Br)C1C(=O)O (stereo not drawn) | > 100 | > 100 | > 100 | > 100 | > 100 | > 100 | > 100 | > 100 | > 100 | –
19 | CC(C)C(Nc1c2ccccc2[n+](C)c2ccccc12)C(=O)O (stereo not drawn) | > 100 | – | – | > 100 | > 100 | > 100 | > 100 | > 100 | – | > 100
20 | Cc1cc(Br)c(O)c(-c2cscn2)c1 | > 100 | 56.9 | – | – | 56.7 | > 100 | 23.6 | > 100 | 41.9 | –
